Data reported in the OPERA property sets (Mansouri et al. 2018).

Conditions: for log10 BCF / log10 biotransformation half-life (days): fish

SMILES: O=C(O)c1ccccc1[N+](=O)[O-]
- melting point: 148 °C
- ready biodegradability: readily biodegradable

SMILES: COCCC#N
- boiling point: 163 °C

SMILES: C[C@H](CS)C(=O)N1CCC[C@H]1C(=O)O
- melting point: 106 °C

SMILES: C=C[Si](C=C)(C=C)C=C
- boiling point: 130 °C

SMILES: CCCCOCCOCCOC(C)=O
- boiling point: 245 °C
- log10 vapour pressure (mmHg): -1.4
- melting point: -32 °C
- ready biodegradability: readily biodegradable

SMILES: O=C=Nc1ccccc1Cl
- boiling point: 200 °C
- melting point: 30.5 °C

SMILES: O=C(O)c1ccc(O)c(O)c1
- ready biodegradability: readily biodegradable

SMILES: C1CCC(CCCCC2CCCCC2)CC1
- boiling point: 305 °C
- melting point: 12 °C

SMILES: C=C(C)Cl
- boiling point: 22.6 °C
- log10 vapour pressure (mmHg): 2.91
- melting point: -137 °C

SMILES: Nc1ccc(Sc2ccc([N+](=O)[O-])cc2)cc1
- melting point: 144 °C

SMILES: CCCC(O)C(=O)O (centres undefined)
- melting point: 34 °C

SMILES: NS(=O)(=O)c1ccc(SCCCCO)cc1
- melting point: 101 °C

SMILES: Nc1cc2c3ccccc3ccc2c2ccccc12
- log10 Koc (L/kg): 5.21
- melting point: 210 °C

SMILES: Cc1c(Cl)ccc(OC(C)C(O)=Nc2ccccc2)c1Cl (centres undefined)
- melting point: 146 °C

SMILES: Cc1ccc(CCl)cc1
- boiling point: 201 °C
- log10 vapour pressure (mmHg): -0.527

SMILES: CN1CC[C@]23c4c5ccc(O)c4O[C@H]2C(=O)CC[C@@]3(O)[C@H]1C5
- melting point: 248 °C

SMILES: CC(C)C(C)(C)C(C)(C)C
- boiling point: 166 °C
- melting point: -36.4 °C

SMILES: O=c1[nH]c(=O)n([C@H]2C[C@H](O)[C@@H](CO)O2)cc1I
- melting point: 263 °C

SMILES: CC(=O)c1ccccc1C(=O)O
- melting point: 114 °C

SMILES: COc1cc(O)cc(O)c1
- melting point: 80.3 °C

SMILES: CC1(C)CC(=O)NC(=O)C1
- melting point: 145 °C

SMILES: O=C1CN=C(c2ccccc2)c2cc([N+](=O)[O-])ccc2N1
- melting point: 225 °C

SMILES: COc1c(F)c(F)cc(F)c1F
- boiling point: 138 °C

SMILES: C=C(C)C(C)(C)C
- boiling point: 77.9 °C
- log10 vapour pressure (mmHg): 2.05
- melting point: -110 °C

SMILES: CCC(=O)c1ccc2ccccc2c1
- boiling point: 313 °C
- melting point: 60 °C

SMILES: O=[N+]([O-])CC(O)C(Cl)(Cl)Cl (centres undefined)
- melting point: 45.5 °C

SMILES: Cc1ccc2cccnc2c1
- boiling point: 258 °C
- log10 vapour pressure (mmHg): -2.05
- melting point: 39 °C

SMILES: O=c1cc(-c2ccc(O)cc2)oc2cc(O)cc(O)c12
- melting point: 348 °C

SMILES: OC(c1ccccc1)(C(F)(F)F)C(F)(F)F
- boiling point: 160 °C

SMILES: CC(c1ccccc1)c1ccccc1
- boiling point: 273 °C
- log10 vapour pressure (mmHg): -1.85
- melting point: -17.9 °C

SMILES: NS(=O)(=O)c1ccc(SCCCCO)s1
- melting point: 48.5 °C

SMILES: O=C(Nc1ncc([N+](=O)[O-])s1)c1cccs1
- melting point: 256 °C

SMILES: CCCCCCCCC(=O)OCCCC
- log10 vapour pressure (mmHg): -1.67
- melting point: -38 °C

SMILES: O=C(O)C=Cc1cccc(Br)c1
- melting point: 178 °C

SMILES: CCCCCCCCCCCCCCCCCO
- boiling point: 333 °C
- melting point: 53.8 °C
- ready biodegradability: readily biodegradable

SMILES: CC(C)COCC(C)O (centres undefined)
- boiling point: 165 °C
- log10 vapour pressure (mmHg): 0.114

SMILES: Cc1ccc(O)c(N=Nc2ccccc2)c1
- melting point: 108 °C

SMILES: Nc1cccc(S(=O)(=O)c2cccc(N)c2)c1
- melting point: 172 °C
- ready biodegradability: not readily biodegradable

SMILES: C#CC(C)OC(=O)Nc1cccc(Cl)c1 (centres undefined)
- log10 Koc (L/kg): 2.21
- log10 vapour pressure (mmHg): -4.8
- melting point: 45.5 °C

SMILES: NC(=S)C(N)=S
- log10 vapour pressure (mmHg): -5.78

SMILES: Cc1ccc(O)c(N)c1
- melting point: 136 °C

SMILES: Cc1ccccc1Br
- boiling point: 182 °C
- log10 vapour pressure (mmHg): 0.0186
- melting point: -27.8 °C

SMILES: CCCCCCCCCCCCc1ccccc1O
- ready biodegradability: not readily biodegradable

SMILES: Cc1cc(O)ccc1[N+](=O)[O-]
- log10 Henry constant (atm·m³/mol): -7.79
- melting point: 128 °C
- ready biodegradability: not readily biodegradable
- log10 BCF: 1.06

SMILES: CC(C)C(C)C(C)C
- boiling point: 114 °C
- log10 biodegradation half-life (days): 1.18
- log10 vapour pressure (mmHg): 1.43
- melting point: -109 °C

SMILES: CCOC(=O)CCl
- boiling point: 144 °C
- log10 vapour pressure (mmHg): 0.687
- melting point: -21 °C

SMILES: CC(=O)NCC(=O)O
- melting point: 206 °C

SMILES: CC(C)(C)c1cc(C(=O)O)cc(C(C)(C)C)c1O
- melting point: 208 °C

SMILES: O=C1CCCO1
- boiling point: 204 °C
- log10 vapour pressure (mmHg): -0.347
- melting point: -43.3 °C
- ready biodegradability: readily biodegradable

SMILES: CCCCCC(=O)OCCCC
- boiling point: 208 °C
- melting point: -64.3 °C

SMILES: Clc1ccccn1
- boiling point: 170 °C
- log10 vapour pressure (mmHg): 0.338
- melting point: -46.5 °C
- ready biodegradability: not readily biodegradable
- log10 BCF: 1.28
- log10 biotransformation half-life (days): -0.85

SMILES: Cc1cccc(N)c1N
- boiling point: 255 °C
- log10 vapour pressure (mmHg): -3.26
- melting point: 63.5 °C

SMILES: CC1(c2ccccc2)OC(C(=O)O)=CC1=O (centres undefined)
- melting point: 176 °C

SMILES: CCN(C)N=O
- boiling point: 170 °C

SMILES: CCN(CC)[N+](=O)[O-]
- boiling point: 206 °C

SMILES: CCCCCCCCCC
- boiling point: 174 °C
- log10 biodegradation half-life (days): 0.954
- log10 vapour pressure (mmHg): 0.155
- melting point: -29.7 °C
- ready biodegradability: readily biodegradable

SMILES: CCOP(=S)(OCC)Oc1ccc2c3c(c(=O)oc2c1)CCCC3
- melting point: 88.2 °C

SMILES: Clc1ccccc1Br
- boiling point: 204 °C
- melting point: -12.3 °C

SMILES: CCOC(=O)CCN(SN(C)C(=O)Oc1cccc2c1OC(C)(C)C2)C(C)C
- log10 vapour pressure (mmHg): -6.7

SMILES: Clc1cc(Cl)c(Cl)c(Cl)c1Cl
- boiling point: 277 °C
- log10 Henry constant (atm·m³/mol): -3.15
- log10 Koa: 6.49
- log10 Koc (L/kg): 3.5
- log10 vapour pressure (mmHg): -3
- melting point: 86 °C
- ready biodegradability: not readily biodegradable
- log10 BCF: 3.75
- log10 biotransformation half-life (days): 1.87
